Laboratory results: EP0181109B1, “N6-benzopyrano- and benzothiopyrano-adenosines” (WARNER-LAMBERT COMPANY, priority 1984, dated 1986)

Assays:
adenosine A2 receptor = target: T1, adenosine A2 receptor (Rattus norvegicus, UniProt P30543); assay: Adenosine Receptor Binding - A2 Receptor Affinity (RBA2), [3H]NECA displacement in striatal membranes; conditions: 4 nM [3H]NECA, 50 nM N6-cyclopentyladenosine, 60 minutes at 25°C, read-out: RBA-2 (IC50, A2 receptor affinity)
T1 construct: Brains were thawed and then kept on ice while the striata were dissected out; tissue Pel-Freez (Rogers, Arkansas); host or cells: rat striatum (membranes)
T1 sequence (P30543 whole entry): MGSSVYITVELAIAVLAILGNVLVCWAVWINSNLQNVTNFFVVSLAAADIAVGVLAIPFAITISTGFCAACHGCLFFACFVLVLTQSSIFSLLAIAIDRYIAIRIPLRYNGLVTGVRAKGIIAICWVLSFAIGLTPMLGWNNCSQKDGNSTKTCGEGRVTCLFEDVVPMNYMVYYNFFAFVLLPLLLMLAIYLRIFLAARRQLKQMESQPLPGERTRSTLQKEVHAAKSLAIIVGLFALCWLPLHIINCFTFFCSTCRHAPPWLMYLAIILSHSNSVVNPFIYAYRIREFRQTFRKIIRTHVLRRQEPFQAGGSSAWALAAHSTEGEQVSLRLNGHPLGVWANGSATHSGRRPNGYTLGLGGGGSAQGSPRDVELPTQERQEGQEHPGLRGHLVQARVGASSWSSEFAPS
Procedure: Brains from 200-500 g mixed sex Sprague-Dawley rats were purchased from Pel-Freez (Rogers, Arkansas). Fresh brains from male Long-Evans hooded rats (Blue Spruce Farms, Altamont, NY) gave essentially identical results. Brains were thawed and then kept on ice while the striata were dissected out. Striata were disrupted in 10 vol of ice-cold 50 mM Tris·HCl (pH 7.7 at 25°C, pH 8.26 at 5°C) (Tris) for 30 seconds in a Polytron PT―10 (Brinkmann) at setting 5. The suspension was centrifuged at 50,000 xg for ten minutes, the supernatant discarded, the pellet resuspended in 10 vol ice-cold Tris as above, recentrifuged, resuspended at 1 g/5 ml, and stored in plastic vials at -70°C (stable for at least six months). When needed, tissue was thawed at room temperature, disrupted in a Polytron, and kept on ice until used.
All incubations were for 60 minutes at 25°C in 12 x 75 mm glass tubes containing 1 ml Tris with 5 mg original tissue weight of rat weight of rat striatal membranes, 4 nM [^3H]-N-ethyl adenosine-5'-carboxamide ([^3H]NECA), 50 nM N^s-cyclopentyladenosine (to eliminate A1 receptor binding), 10 mM MgCI2, 0.1 units/ml of adenosine deaminase and 1% dimethylsulfoxide. N^6-Cyclopentyladenosine was dissolved at 10 mM in 0.02 N HCI and diluted in Tris. Stock solutions and dilutions of N^6-cyclopentyladenosine could be stored at -20°C for several months. Test compounds were dissolved at 10 mM in dimethylsulfoxide on the same day as the experiment, and diluted in dimethylsulfoxide to 100x the final incubation concentration. Control incubations received an equal volume (10 µl) of dimethylsulfoxide; the resulting concentration of dimethylsulfoxide had no effect on binding. [^3H]NECA was diluted to 40 nM in Tris. The membrane suspension (5 mg/0.79 ml) contained sufficient MgC12 and adenosine deaminase to give 10 mM and 0.1 units/ml, respectively, final concentration in the incubation. […] After all additions, the rack of tubes was vortexed, and the tubes were then incubated for 60 min at 25°C in a shaking water bath. The rack of tubes was vortexed an additional time halfway through the incubation.
Incubations were terminated by filtration through 2.4 cm GF/B filters under reduced pressure. Each tube was filtered as follows: the contents of the tube were poured onto the filter, 4 ml of ice-cold Tris were added to the tube and the contents poured onto the filter, and the filter was washed twice with 4 ml of ice-cold Tris. The filtration was complete in about 12 seconds. Filters were put in scintillation vials, 8 ml of Formula 947 scintillation fluid added, and the vials left overnight, shaken, and counted in a liquid scintillation counter at 40% efficiency.
Nonspecific binding was defined as binding in the presence of […] N^6-cyclopentyladenosine, and specific binding was defined as total binding minus nonspecific binding. The IC50 was calculated by weighted nonlinear least squares curve-fitting to the mass action equation. [formula] • where Y is cpm bound • T is cpm total binding without drug • S is cpm specific binding without drug • D is the concentration of drug • and K is the IC50 of the drug Weighting factors were calculated under the assumption that the standard deviation was proportional to the predicted value of Y. Nonspecific binding was treated as a very large (infinite) concentration of drug in the computer analysis.

conscious rat = assay: Antihypertensive evaluation (AHP3): direct monitoring of aortic blood pressure and heart rate from conscious rats; type: in vivo
Procedure: This test procedure is described in the following paragraphs.
The continuous monitoring of pulsatile blood pressure (BP) from unrestrained conscious rats surgically equipped with polyethylene cannulas was accomplished by means of a computer assisted data capture scheme (CADCS). The basic elements of the methodology are the cannulation procedure and the CADCS.
Cannulation Procedure: Rats were anesthetized with Telazol (1:1 tiletamine HCI and zolazepam HCI); 20-40 mg/kg IM and the descending aorta exposed via a midline incision. Cannulas fabricated from polyethylene tubing were inserted into the aorta via an undersized puncture hole below the renal arteries. The puncture hole was made by a 23 G disposable needle with a section of the aorta clamped off above and below the puncture site. The cannulas, consisting of a PE100 (0.86 mm ID) body and a PE50 (0.58 mm ID) tip, were attached to a trocar, inserted through the psoas muscle, and passed subcutaneously along the midline of the back and externalized between the ears. The cannulas were anchored to the psoas muscle and between the scalulae (3-0 green braided suture). The midline incision was closed in two steps (muscle first, skin second) using continuous over-and over sutures (4-0 chronic). Each rat was then given penicillin 30,000 units subcutaneously (Penicillin G Procaine Sterile Suspension).
The rats were fitted with a harness-spring-swivel assembly designed to protect the cannula and to provide the rat relative freedom of movement. The harnesses were fabricated from nylon hook and loop tape cemented to a metal plate to which spring wires (18-8 stainless steel), were attached to brass swivels. Each polyethylene cannula was channeled through a spring and connected through a swivel to a pressure transducer (Model P23Gb; Statham Instruments; Hato Rey, Puerto Rico) and an infusion pump (Sage model 234-7; Orion Research, Cambridge, MA) by means of PE100 tubing. While on test, each rat received a continuous slow infusion of heparinized saline solution (approximately 400 I or 40 units of heparin per 24 hour period) to prevent clot formation. Additional "flushes" of the cannula with heparinized saline were carried out when the aortic pulse pressure (systolic minus diastolic) was less than 25 mm Hg.
CADCS: The pulsatile blood pressure and heart rate of each of 32 rats was monitored every minute by means of two in-laboratory microcomputers communicating directly with a data concentrator computer. The data were first stored on the data concentrator disk and the transferred to a magnetic tape for analysis and report generation by the main research computer. The overall scheme involved modulating the primary signal from the pressure transducer, generating the primary data set of the one-minute values for systolic, diastolic, and mean blood pressures and heart rate by the in-lab microcomputer and the storage, analysis, and report generation by the main research computer.
The transducers were connected to analog signal conditioning modules. The modules provided a regulated excitation voltage for the transducers, amplification as required to interface the microprocessors and an active low pass filter to compensate for the pressure wave form distortion produced by the fexible, fluid filled, narrow cannula. The distortion was 22-26 Hz and this provided a reliable estimate of both systolic and diastolic blood pressure.
The microcomputers (one for each of the two groups of 16 rats) were connected to the input components through the module interface units, an analog-to-digital converter for the pressure wave form signal and the digital inputs for the dose and event marker switches. The microcomputer controlled the sequential acquisition of data from the modular interface units through an internal synchronous time-of- day clock/time base generator. […]

[1] = 10 mg/kg, Hour 5, conscious rat
[2] = 10 mg/kg, Hour 3, conscious rat

Compound | IC50 (adenosine A2 receptor) [nM] | other results
C[C@H]1Oc2ccccc2C[C@@H]1Nc1ncnc2c1ncn2[C@@H]1O[C@H](CO)[C@@H](O)[C@H]1O (relative stereo) [Example 8, N^l-[trans-2-Methyl,-3-chromanylamino]adenosine] | 490 | 
OC[C@H]1O[C@@H](n2cnc3c(NC4CCOc5ccccc54)ncnc32)[C@H](O)[C@@H]1O (stereo partly drawn) [Example 1] | 600 | 
OC[C@H]1O[C@@H](n2cnc3c(NC4CSc5ccccc5C4)ncnc32)[C@H](O)[C@@H]1O (stereo partly drawn) [Example 2] | 340 | 
COc1ccc2c(c1)OCC(Nc1ncnc3c1ncn3[C@@H]1O[C@H](CO)[C@@H](O)[C@H]1O)C2 (stereo partly drawn) [Example 3] | 1360 | 
OC[C@H]1O[C@@H](n2cnc3c(NC4COc5ccccc5C4)ncnc32)[C@H](O)[C@@H]1O (stereo partly drawn) [Example 4, N^6-[3-Chromanylamino]adenosine] | 610 | 
OC[C@H]1O[C@@H](n2cnc3c(NC4COc5c(Cl)cccc5C4)ncnc32)[C@H](O)[C@@H]1O (stereo partly drawn) [Example 5] | 210 | HR change (conscious rat; [1]): 0%
COc1ccc2c(c1)CC(Nc1ncnc3c1ncn3[C@@H]1O[C@H](CO)[C@@H](O)[C@H]1O)CO2 (stereo partly drawn) [Example 6] | 1090 | 
CC1Oc2ccccc2CC1Nc1ncnc2c1ncn2C1OC(CO)C(O)C1O (stereo not drawn) [Example 7, N^6-[cis-2-Methyl-3-chromanylamino]adenosine] | 1840 | 
Cc1cc2c(cc1C)OCC(Nc1ncnc3c1ncn3[C@@H]1O[C@H](CO)[C@@H](O)[C@H]1O)C2 (stereo partly drawn) [Example 9, N^6-[6,7-Dimethyl-3-chromanylamino]adenosine] | 1240 | HR change (conscious rat; 10 mg/kg, Hour 7, conscious rat): 0%
Cc1ccc2c(c1C)OCC(Nc1ncnc3c1ncn3[C@@H]1O[C@H](CO)[C@@H](O)[C@H]1O)C2 (stereo partly drawn) [Example 10, N^6-[7,8-Dimethyl-3-chromanylamino]adenosine] | 942 | HR change (conscious rat; 3 mg/kg, Hour 5, conscious rat): 0%
Cc1ccc2c(c1C)OC(C)C(Nc1ncnc3c1ncn3[C@@H]1O[C@H](CO)[C@@H](O)[C@H]1O)C2 (stereo partly drawn) [Example 11] | 360 | HR change (conscious rat; [2]): 0%; HR change (conscious rat; [1]): 0%
CC(C)(C)c1ccc2c(c1)OCC(Nc1ncnc3c1ncn3[C@@H]1O[C@H](CO)[C@@H](O)[C@H]1O)C2 (stereo partly drawn) [Example 13, N^6-[7-t-Butyl-3-chromanylamino)adenosine] | 2940 | 
COc1cc(OC)c2c(c1)OC(C)(C)CC2Nc1ncnc2c1ncn2[C@@H]1O[C@H](CO)[C@@H](O)[C@H]1O (stereo partly drawn) [Example 14] | 37900 | MAP change (conscious rat; [2]): 0%
OC[C@H]1O[C@@H](n2cnc3c(NC4CCSc5ccccc54)ncnc32)[C@H](O)[C@@H]1O (stereo partly drawn) [Example 15] | 86.5 | 
O=S1(=O)CCC(Nc2ncnc3c2ncn3[C@@H]2O[C@H](CO)[C@@H](O)[C@H]2O)c2ccccc21 (stereo partly drawn) [Example 16, N^6-[4-Benzothiopyran-1,1-dioxideamino]adenosine] | 1390 | 
